# In ChEMBL document CHEMBL6087412, “Discovery of cloxiquine derivatives as potent HDAC inhibitors for the treatment of melanoma via activating PPARγ” (Eur J Med Chem, 2025):
# Calls of active or inactive are those of the source. No cut-off for these calls is given here.
# Columns and labels:
# A-375 = test: cells; settings: Homo sapiens, A-375, 72 h
# Description: Antiproliferative activity against human A-375 cells assessed as inhibition of cell growth incubated for 72 hrs by MTT assay
# SK-MEL-5 [1] = test: cells; settings: Homo sapiens, SK-MEL-5, 72 h
# Description: Antiproliferative activity against human SK-MEL-5 cells assessed as inhibition of cell growth incubated for 72 hrs by MTT assay
# in vitro = settings: human, MRC5 cells
# Description: Antiproliferative activity against human MRC5 cells assessed as inhibition of cell growth incubated for 72 hrs by MTT assay
# SK-MEL-5 [2] = test: Induction of apoptosis in human SK-MEL-5 cells assessed as early apoptotic cells at 0.2 uM incubated for 48 hrs by Annexin V-APC/7-AAD staining based flow cytometric analysis (reference value: 2.29 %); assay type: functional
# Histone deacetylase 4 = Histone deacetylase 4 (Homo sapiens, UniProt P56524); test: Inhibition of HDAC4 (unknown origin) using Ac-Leu-Gly-Lys(Tfa)-AMC as substrate by spectramax microplate reader analysis
# Sequence of Histone deacetylase 4 (P56524 whole entry): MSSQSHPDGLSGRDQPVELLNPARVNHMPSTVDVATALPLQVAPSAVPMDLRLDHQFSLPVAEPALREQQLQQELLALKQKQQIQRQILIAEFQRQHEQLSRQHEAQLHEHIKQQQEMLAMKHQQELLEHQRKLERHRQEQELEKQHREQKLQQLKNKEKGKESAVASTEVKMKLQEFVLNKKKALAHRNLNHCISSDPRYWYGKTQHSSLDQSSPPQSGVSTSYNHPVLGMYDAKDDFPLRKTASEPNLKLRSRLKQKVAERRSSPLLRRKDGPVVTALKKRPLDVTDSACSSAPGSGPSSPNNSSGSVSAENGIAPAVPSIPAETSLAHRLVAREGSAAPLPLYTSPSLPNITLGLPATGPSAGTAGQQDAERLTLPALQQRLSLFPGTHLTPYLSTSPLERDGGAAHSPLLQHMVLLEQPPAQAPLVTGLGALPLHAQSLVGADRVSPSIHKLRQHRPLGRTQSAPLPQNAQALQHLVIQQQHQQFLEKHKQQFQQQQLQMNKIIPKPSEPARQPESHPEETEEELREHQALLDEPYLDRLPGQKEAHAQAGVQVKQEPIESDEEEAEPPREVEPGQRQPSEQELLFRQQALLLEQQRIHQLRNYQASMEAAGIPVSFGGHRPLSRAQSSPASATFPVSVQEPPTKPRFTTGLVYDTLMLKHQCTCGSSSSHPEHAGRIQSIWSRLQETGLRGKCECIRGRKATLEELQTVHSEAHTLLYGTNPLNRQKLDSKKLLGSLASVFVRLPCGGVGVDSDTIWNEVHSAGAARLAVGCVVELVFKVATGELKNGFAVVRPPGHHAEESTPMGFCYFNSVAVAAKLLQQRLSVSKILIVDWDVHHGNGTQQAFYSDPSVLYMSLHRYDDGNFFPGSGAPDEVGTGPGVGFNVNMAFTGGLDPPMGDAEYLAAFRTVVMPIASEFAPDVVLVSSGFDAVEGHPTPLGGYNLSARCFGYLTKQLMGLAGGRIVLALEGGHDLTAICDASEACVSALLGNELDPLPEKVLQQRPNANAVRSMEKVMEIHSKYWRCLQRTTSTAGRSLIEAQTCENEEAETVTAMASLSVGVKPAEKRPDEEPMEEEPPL
# SK-MEL-5 [3] = test: Antiproliferative activity against human SK-MEL-5 cells assessed as upregulation of PPARgamma expression incubated for 48 hrs by Western blotting analysis; assay type: functional, cell-based
# SK-MEL-5 [4] = test: Antiproliferative activity against human SK-MEL-5 cells assessed as inhibition of cell growth incubated for 72 hrs in presence of GW9662 by MTT assay; assay type: functional, cell-based
# SK-MEL-5 [5] = test: Inhibition of glycolysis in human SK-MEL-5 cells assessed as reduction in lactate production at 2 uM incubated for 48 hrs in presence of GW9662 by chekineTM micro lactate Assay; assay type: functional, cell-based
# SK-MEL-5 [6] = test: Induction of cell cycle arrest in human SK-MEL-5 cells assessed as accumulation of cells at G0/G1 phase at 0.2 uM incubated for 48 hrs by propidium iodide staining based flow cytometry (reference value: 66.27 %); assay type: functional
# SK-MEL-5 [7] = test: Induction of cell cycle arrest in human SK-MEL-5 cells assessed as accumulation of cells at G0/G1 phase at 1 uM incubated for 48 hrs by propidium iodide staining based flow cytometry (reference value: 66.27 %); assay type: functional
# SK-MEL-5 [8] = test: Induction of cell cycle arrest in human SK-MEL-5 cells assessed as accumulation of cells at G0/G1 phase at 5 uM incubated for 48 hrs by propidium iodide staining based flow cytometry (reference value: 66.27 %); assay type: functional
# SK-MEL-5 [9] = test: Induction of cell cycle arrest in human SK-MEL-5 cells assessed as accumulation of cells at G2/M phase at 0.2 uM incubated for 48 hrs by propidium iodide staining based flow cytometry (reference value: 8.36 %); assay type: functional
# SK-MEL-5 [10] = test: Induction of cell cycle arrest in human SK-MEL-5 cells assessed as accumulation of cells at G2/M phase at 1 uM incubated for 48 hrs by propidium iodide staining based flow cytometry (reference value: 8.36 %); assay type: functional
# SK-MEL-5 [11] = test: Induction of cell cycle arrest in human SK-MEL-5 cells assessed as accumulation of cells at G2/M phase at 5 uM incubated for 48 hrs by propidium iodide staining based flow cytometry (reference value: 8.36 %); assay type: functional
# SK-MEL-5 [12] = test: Induction of cell cycle arrest in human SK-MEL-5 cells assessed as accumulation of cells at S phase at 0.2 uM incubated for 48 hrs by propidium iodide staining based flow cytometry (reference value: 25.36 %); assay type: functional
# SK-MEL-5 [13] = test: Induction of cell cycle arrest in human SK-MEL-5 cells assessed as accumulation of cells at S phase at 1 uM incubated for 48 hrs by propidium iodide staining based flow cytometry (reference value: 25.36 %); assay type: functional
# SK-MEL-5 [14] = test: Induction of cell cycle arrest in human SK-MEL-5 cells assessed as accumulation of cells at S phase at 5 uM incubated for 48 hrs by propidium iodide staining based flow cytometry (reference value: 25.36 %); assay type: functional
# SK-MEL-5 [15] = test: Induction of apoptosis in human SK-MEL-5 cells assessed as viable cells at 0.2 uM incubated for 48 hrs by Annexin V-APC/7-AAD staining based flow cytometric analysis (reference value: 95.77 %); assay type: functional; settings: read-out: Activity
# SK-MEL-5 [16] = test: Induction of apoptosis in human SK-MEL-5 cells assessed as late apoptotic cells at 0.2 uM incubated for 48 hrs by Annexin V-APC/7-AAD staining based flow cytometric analysis (reference value: 0.9 %); assay type: functional
# SK-MEL-5 [17] = test: Induction of apoptosis in human SK-MEL-5 cells assessed as necrotic cells at 0.2 uM incubated for 48 hrs by Annexin V-APC/7-AAD staining based flow cytometric analysis (reference value: 1.05 %); assay type: functional
# SK-MEL-5 [18] = test: Induction of apoptosis in human SK-MEL-5 cells assessed as viable cells at 1 uM incubated for 48 hrs by Annexin V-APC/7-AAD staining based flow cytometric analysis (reference value: 95.77 %); assay type: functional; settings: read-out: Activity
# SK-MEL-5 [19] = test: Induction of apoptosis in human SK-MEL-5 cells assessed as early apoptotic cells at 1 uM incubated for 48 hrs by Annexin V-APC/7-AAD staining based flow cytometric analysis (reference value: 2.29 %); assay type: functional
# SK-MEL-5 [20] = test: Induction of apoptosis in human SK-MEL-5 cells assessed as late apoptotic cells at 1 uM incubated for 48 hrs by Annexin V-APC/7-AAD staining based flow cytometric analysis (reference value: 0.9 %); assay type: functional
# SK-MEL-5 [21] = test: Induction of apoptosis in human SK-MEL-5 cells assessed as necrotic cells at 1 uM incubated for 48 hrs by Annexin V-APC/7-AAD staining based flow cytometric analysis (reference value: 1.05 %); assay type: functional
# SK-MEL-5 [22] = test: Induction of apoptosis in human SK-MEL-5 cells assessed as viable cells at 5 uM incubated for 48 hrs by Annexin V-APC/7-AAD staining based flow cytometric analysis (reference value: 95.77 %); assay type: functional; settings: for viability at 5 µM: Homo sapiens, SK-MEL-5, read-out: Activity
# SK-MEL-5 [23] = test: Induction of apoptosis in human SK-MEL-5 cells assessed as early apoptotic cells at 5 uM incubated for 48 hrs by Annexin V-APC/7-AAD staining based flow cytometric analysis (reference value: 2.29 %); assay type: functional
# SK-MEL-5 [24] = test: Induction of apoptosis in human SK-MEL-5 cells assessed as late apoptotic cells at 5 uM incubated for 48 hrs by Annexin V-APC/7-AAD staining based flow cytometric analysis (reference value: 0.9 %); assay type: functional
# SK-MEL-5 [25] = test: Induction of apoptosis in human SK-MEL-5 cells assessed as necrotic cells at 5 uM incubated for 48 hrs by Annexin V-APC/7-AAD staining based flow cytometric analysis (reference value: 1.05 %); assay type: functional
# SK-MEL-5 [26] = test: Inhibition of cell migration in human SK-MEL-5 cells incubated for 24 hrs by scratch assay; assay type: functional, cell-based
# SK-MEL-5 [27] = test: Inhibition of cell invasion in human SK-MEL-5 cells at 0.2 to 5 uM incubated for 48 hrs by transwell assay; assay type: functional, cell-based; settings: dose 0.2-5 µM
# SK-MEL-5 [28] = test: Antitumor activity against human SK-MEL-5 cells xenografted with BALB/c mouse assessed as tumor growth inhibition at 30 mg/kg,ip administrated for 21 consecutive days; assay type: functional; settings: read-out: TGI
# [29] = Toxicity in BALB/c mouse xenografted with human SK-MEL-5 cells assessed as body weight loss at 30 mg/kg,ip administrated for 21 consecutive days; assay type: organism-based; settings: in vivo
smiles,measurement,setting,value
O=C(CCCCOc1cccc2cccnc12)NO,IC50,A-375,> 50 µM
same,IC50,SK-MEL-5 [1],> 50 µM
same,IC50 at 72 h,in vitro,> 50 µM
O=C(CCCOc1cccc2cccnc12)NO,IC50,A-375,32.8 µM
same,IC50,SK-MEL-5 [1],29.8 µM
same,IC50 at 72 h,in vitro,> 50 µM
O=C(Cc1ccc(COc2cccc3cccnc23)cc1)NO,IC50,A-375,> 50 µM
same,IC50,SK-MEL-5 [1],> 50 µM
same,IC50 at 72 h,in vitro,> 50 µM
O=C(CCCCCCOc1cccc2cccnc12)NO,Activity,SK-MEL-5 [2],3.68%
same,IC50,Histone deacetylase 4,19.3 µM
same,Activity,SK-MEL-5 [3],Dose-dependent-effect
same,Activity,SK-MEL-5 [4],inactive
same,inhibition,SK-MEL-5 [5],inactive
same,Activity,SK-MEL-5 [6],64.96%
same,Activity,SK-MEL-5 [7],59.45%
same,Activity,SK-MEL-5 [8],50.23%
same,Activity,SK-MEL-5 [9],11.27%
same,Activity,SK-MEL-5 [10],16%
same,Activity,SK-MEL-5 [11],22.01%
same,Activity,SK-MEL-5 [12],23.77%
same,Activity,SK-MEL-5 [13],24.55%
same,Activity,SK-MEL-5 [14],27.75%
same,viability at 0.2 µM,SK-MEL-5 [15],92.7%
same,Activity,SK-MEL-5 [16],2.81%
same,Activity,SK-MEL-5 [17],0.85%
same,viability at 1 µM,SK-MEL-5 [18],77.8%
same,Activity,SK-MEL-5 [19],9.75%
same,Activity,SK-MEL-5 [20],8.03%
same,Activity,SK-MEL-5 [21],4.41%
same,viability at 5 µM,SK-MEL-5 [22],49.9%
same,Activity,SK-MEL-5 [23],35.15%
same,Activity,SK-MEL-5 [24],12.52%
same,Activity,SK-MEL-5 [25],2.39%
same,inhibition,SK-MEL-5 [26],Dose-dependent-effect
same,inhibition,SK-MEL-5 [27],Active
same,inhibition in vivo at 30 mg/kg,SK-MEL-5 [28],50.2%
same,Activity,[29],Non-toxic
same,IC50,A-375,1.2 µM
same,IC50,SK-MEL-5 [1],0.93 µM
same,IC50 at 72 h,in vitro,3.64 µM
O=C(CCc1ccc(COc2ccc(Cl)c3cccnc23)cc1)NO,IC50,A-375,22.7 µM
same,IC50,SK-MEL-5 [1],17.4 µM
same,IC50 at 72 h,in vitro,> 50 µM
Oc1ccc(Cl)c2cccnc12 [CLOXYQUIN],Activity,SK-MEL-5 [8],58.85%
same,Activity,SK-MEL-5 [11],13.48%
same,Activity,SK-MEL-5 [14],27.67%
same,viability at 5 µM,SK-MEL-5 [22],85.1%
same,Activity,SK-MEL-5 [23],6.96%
same,Activity,SK-MEL-5 [24],4.88%
same,Activity,SK-MEL-5 [25],3.08%
same,inhibition in vivo at 30 mg/kg,SK-MEL-5 [28],24.3%
same,IC50,A-375,6.08 µM
same,IC50,SK-MEL-5 [1],5 µM
same,IC50 at 72 h,in vitro,20.4 µM
O=C(CCCCOc1ccc(Cl)c2cccnc12)NO,IC50,A-375,22.2 µM
same,IC50,SK-MEL-5 [1],21.6 µM
same,IC50 at 72 h,in vitro,> 50 µM
O=C(NO)c1cccc(COc2cccc3cccnc23)c1,IC50,A-375,> 50 µM
same,IC50,SK-MEL-5 [1],41.5 µM
same,IC50 at 72 h,in vitro,> 50 µM
O=C(CCCCCOc1ccc(Cl)c2cccnc12)NO,IC50,A-375,15 µM
same,IC50,SK-MEL-5 [1],13.7 µM
same,IC50 at 72 h,in vitro,42.1 µM
O=C(NO)c1cccc(COc2ccc(Cl)c3cccnc23)c1,IC50,A-375,29.5 µM
same,IC50,SK-MEL-5 [1],24.2 µM
same,IC50 at 72 h,in vitro,> 50 µM
O=C(NO)c1ccccc1COc1ccc(Cl)c2cccnc12,IC50,A-375,9.78 µM
same,IC50,SK-MEL-5 [1],8.53 µM
same,IC50 at 72 h,in vitro,21.3 µM
O=C(CCCCCCC(=O)Nc1ccccc1)NO [VORINOSTAT],Activity,SK-MEL-5 [8],55.91%
same,Activity,SK-MEL-5 [11],19.87%
same,Activity,SK-MEL-5 [14],24.22%
same,Activity,SK-MEL-5 [22],57.12%
same,Activity,SK-MEL-5 [23],32.5%
same,Activity,SK-MEL-5 [24],7.99%
same,Activity,SK-MEL-5 [25],2.39%
same,IC50,SK-MEL-5 [1],2.16 µM
O=C(CCCCCCOc1ccc(Cl)c2cccnc12)NO,IC50,A-375,3.68 µM
same,IC50,SK-MEL-5 [1],3.47 µM
same,IC50 at 72 h,in vitro,8.07 µM
O=C(NO)c1ccccc1COc1cccc2cccnc12,IC50,A-375,> 50 µM
same,IC50,SK-MEL-5 [1],46.6 µM
same,IC50 at 72 h,in vitro,> 50 µM
O=C(/C=C/c1ccc(COc2cccc3cccnc23)cc1)NO,IC50,A-375,3.72 µM
same,IC50,SK-MEL-5 [1],3.67 µM
same,IC50 at 72 h,in vitro,7.34 µM
O=C(NO)c1ccc(COc2cccc3cccnc23)cc1,IC50,A-375,15.1 µM
same,IC50,SK-MEL-5 [1],15 µM
same,IC50 at 72 h,in vitro,18.4 µM
O=C(NO)c1ccc(COc2ccc(Cl)c3cccnc23)cc1,IC50,A-375,> 50 µM
same,IC50,SK-MEL-5 [1],> 50 µM
same,IC50 at 72 h,in vitro,> 50 µM
O=C(NO)c1ccc(CCOc2cccc3cccnc23)cc1,IC50,A-375,13.3 µM
same,IC50,SK-MEL-5 [1],13.7 µM
same,IC50 at 72 h,in vitro,29 µM
O=C(/C=C/c1ccc(COc2ccc(Cl)c3cccnc23)cc1)NO,IC50,A-375,3.45 µM
same,IC50,SK-MEL-5 [1],3.7 µM
same,IC50 at 72 h,in vitro,6.94 µM
O=C(CCCOc1ccc(Cl)c2cccnc12)NO,IC50,A-375,6.57 µM
same,IC50,SK-MEL-5 [1],6.27 µM
same,IC50 at 72 h,in vitro,19.5 µM
O=C(NO)c1ccc(CCOc2ccc(Cl)c3cccnc23)cc1,IC50,A-375,11.9 µM
same,IC50,SK-MEL-5 [1],10.8 µM
same,IC50 at 72 h,in vitro,23.3 µM
O=C(CCCCCOc1cccc2cccnc12)NO,IC50,A-375,13.8 µM
same,IC50,SK-MEL-5 [1],12.7 µM
same,IC50 at 72 h,in vitro,28.1 µM
